From article PMC11558128 (Advanced Science, 2024)
Positions of bridges follow the written chain, without caps; N, C: chain ends. Residues, ends and D or L forms follow the SMILES beside them.

How the values were obtained:
rKv4.2 M279A = target: T1, rKv4.2 M279A (Rattus norvegicus, UniProt Q63881, M279A); experiment: cell-based; conditions: mean ± SEM
T1 construct: expressed in transfected cells; host or cells: HEK293T
T1 sequence (Q63881 1-630 M279A): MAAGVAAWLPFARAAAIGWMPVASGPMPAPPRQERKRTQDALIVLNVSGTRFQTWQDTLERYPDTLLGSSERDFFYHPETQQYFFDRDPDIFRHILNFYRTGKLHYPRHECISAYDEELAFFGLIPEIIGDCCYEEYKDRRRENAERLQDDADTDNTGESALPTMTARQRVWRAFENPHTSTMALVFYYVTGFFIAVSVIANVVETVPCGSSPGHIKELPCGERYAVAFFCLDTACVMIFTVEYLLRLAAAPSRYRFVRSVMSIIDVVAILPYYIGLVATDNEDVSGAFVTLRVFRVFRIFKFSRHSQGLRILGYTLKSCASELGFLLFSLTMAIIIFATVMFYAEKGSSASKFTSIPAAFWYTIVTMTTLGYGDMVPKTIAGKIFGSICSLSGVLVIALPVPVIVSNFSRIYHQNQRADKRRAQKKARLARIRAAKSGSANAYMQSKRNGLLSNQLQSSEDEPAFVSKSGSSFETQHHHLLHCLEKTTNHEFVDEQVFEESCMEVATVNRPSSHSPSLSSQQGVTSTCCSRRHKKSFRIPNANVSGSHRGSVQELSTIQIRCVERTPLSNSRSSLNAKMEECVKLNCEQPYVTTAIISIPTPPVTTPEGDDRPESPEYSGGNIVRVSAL

ICR mice [1] = experiment: Small intestinal propulsion test; type: in vivo, mouse; conditions: 2 mg kg-1 i.p.; vs saline; n = 4, p = 0.3429
Method: Small Intestinal Propulsion Test: ICR mice (weight 18–20 g, 6–8 weeks, both sex) were subjected to a 24‐hour fasting period to ensure gastrointestinal emptying. Subsequently, the mice were randomly assigned to one of two groups: Saline (2 males and 2 females) and 2 mg kg^−1 mGpTx1‐SA (2 males and 2 females). All groups received intraperitoneal administration of their respective substances and were allowed 20 minutes for the drugs to take effect. Following drug administration, each mouse received a pre‐prepared nutritive semi‐solid paste (10 g of sodium carboxymethylcellulose, 16 g of milk powder, 8 g of sucrose, 8 g of starch, and 5 g of activated charcoal, stirred well in 250 mL of ddH2O) via gavage (0.5 mL per 20 g). After 20 min, the mice were euthanized, and their small intestines were carefully removed. The distance from the pylorus to the ileum was measured along the full length of the small intestine. Additionally, the distance from the pylorus to the front of the black semi‐solid paste was measured. Small intestinal propulsion rate (%) = length of carbon paste propulsion (cm) × 100% / total length of small intestine (cm).

[2] = tested on: native Kv channels of rat primary cardiomyocytes; conditions: 5 µM; n = 5
ICR mice [3] = experiment: Rotarod test; type: in vivo, mouse; conditions: 2 mg kg-1 i.p.; vs saline; n = 5-6, p > 0.9999
Method: In Vivo Safety Evaluation: Rotarod Test: ICR mice (weight 18–20 g, 6–8 weeks, both sex) were trained on a rotarod at a constant speed of 20 rpm for 8 min per day. […] On the 5th day, the remaining mice were randomly divided into two groups: Saline (3 males and 2 females) and 2 mg kg^−1 mGpTx1‐SA (3 males and 3 females). All groups were administered intraperitoneally and allowed 20 minutes for the drug to take effect before behavioral tests were conducted. The total motor time of the animals during 300 s was recorded for analysis.

C57BL/6 mice = experiment: Open field test; type: in vivo, mouse; conditions: 2 mg kg-1 i.p.; 2 min; vs saline; n = 4, p = 0.2000
Method: Open Field Test: The C57BL/6 mice (weight 18–20 g, 6–8 weeks, both sex) were randomly assigned to one of two groups: Saline (2 males and 2 females) and 2 mg kg^−1 mGpTx1‐SA (2 males and 2 females). All mice received intraperitoneal administration of the respective substances and were allowed 20 min for the drugs to take effect. Following drug administration, the mice were individually placed in square transparent chambers (50 × 50 cm). They were allowed to explore freely under normal light. The movements and trajectories of the mice were recorded using video and computer systems over a 2‐minute period for subsequent analysis.

[4] = tested on: acutely isolated rat cardiomyocytes; conditions: 5 µM; for effect on action potential duration (APD): n = 5-6
[5] = tested on: native Nav channels of rat primary cardiomyocytes; conditions: 5 µM; n = 5
ICR mice [6] = experiment: Surface electrocardiogram (ECG) recording in ICR mice; type: in vivo, mouse
Method: Surface Electrocardiographic (ECG) Recording: ICR mice (weight 18–20 g, 6–8 weeks, both sex) were lightly anesthetized with 3% halothane for Surface electrocardiograms (ECG), which were recorded by placing dry electrodes carefully wrapped around each of the mouse's four limbs. The data of physiological effects of intravenous administration of 0.3 mg kg^−1 mGpTx1 (4 males and 4 females) or 2 mg kg^−1 mGpTx1‐SA (3 males and 2 females) for 5 min were collected by PowerLab 2/28 and LabChart 8 (AD Instruments, Bella Vista, Australia) and analyzed standard ECG parameters by along with its accompanying ECG analysis plug‐in. For each mouse, the data of 8 cardiac cycles before and after administration were averaged for analysis.

Compound: CC[C@H](C)[C@H](NC(=O)[C@H](CCC(=O)O)NC(=O)[C@H](Cc1ccc(O)cc1)NC(=O)[C@H](CCCCN)NC(=O)[C@@H]1CSSC[C@@H]2NC(=O)[C@H](CCC(N)=O)NC(=O)[C@H](CC(=O)O)NC(=O)[C@H](CC(N)=O)NC(=O)[C@H](CO)NC(=O)[C@@H]3CCCN3C(=O)[C@H](CC(N)=O)NC(=O)[C@@H]3CSSC[C@H](NC(=O)[C@H](C(C)C)NC(=O)[C@H](CC(C)C)NC(=O)[C@H](CC(N)=O)NC(=O)[C@H](CO)NC(=O)[C@H](CO)NC(=O)[C@H](CCCCN)NC(=O)[C@H](CSSC[C@H](NC(=O)[C@@H](N)CCC(=O)O)C(=O)N[C@@H](CC(C)C)C(=O)NCC(=O)N[C@@H](Cc4ccccc4)C(=O)NCC(=O)N[C@@H](CCCCN)C(=O)NCC(=O)N3)NC2=O)C(=O)N[C@@H](CO)C(=O)N[C@@H](CCCNC(=N)N)C(=O)N[C@@H](CCCCN)C(=O)N[C@@H](Cc2c[nH]cn2)C(=O)N[C@@H](CCCNC(=N)N)C(=O)N[C@@H](Cc2c[nH]c3ccccc23)C(=O)N1)C(N)=O [HNTX-IV]
- IC50 (rKv4.2 M279A): 167 ± 14 nM

Compound: CC(C)C[C@@H]1NC(=O)[C@H](Cc2c[nH]c3ccccc23)NC(=O)[C@H](Cc2ccc(O)cc2)NC(=O)[C@H](CCCNC(=N)N)NC(=O)[C@@H](NC(=O)[C@@H](N)CCC(=O)O)CSSC[C@@H]2NC(=O)[C@@H]3CSSC[C@@H](C(=O)N[C@H](C(=O)N[C@@H](Cc4c[nH]c5ccccc45)C(=O)N[C@@H](CC(=O)O)C(=O)N[C@@H](Cc4c[nH]c5ccccc45)C(=O)N[C@H](C(=O)N[C@@H](Cc4ccccc4)C(N)=O)[C@@H](C)O)C(C)C)NC(=O)[C@H](Cc4c[nH]c5ccccc45)NC(=O)CNC(=O)[C@H](Cc4c[nH]cn4)NC(=O)[C@H](CCCCN)NC(=O)[C@@H]4CCCN4C(=O)[C@H](CO)NC(=O)[C@H](CSSC[C@H](NC(=O)[C@H]([C@@H](C)O)NC(=O)CNC1=O)C(=O)N[C@@H](CO)C(=O)N[C@@H](CCCCN)C(=O)N[C@@H]([C@@H](C)O)C(=O)NCC(=O)N[C@@H](CC(=O)O)C(=O)N3)NC(=O)[C@H](CO)NC(=O)[C@H](CC(C)C)NC(=O)[C@H](Cc1c[nH]cn1)NC(=O)[C@H](CO)NC2=O [HNTX-VIIa] (H-ECRYWLGTCSKTGDCCSHLSCSPKHGWCVWDWTF-NH2; disulfide 2-16, 9-21, 15-28)
- IC50 (rKv4.2 M279A): 42 ± 6 nM

Compound: CC[C@H](C)[C@@H]1NC(=O)[C@@H]2CSSC[C@@H]3NC(=O)[C@H](C(C)C)NC(=O)[C@H](CC(C)C)NC(=O)[C@H](CC(N)=O)NC(=O)[C@@H]4CCCN4C(=O)[C@H](CCCNC(=N)N)NC(=O)[C@H](CSSC[C@H](NC(=O)[C@@H](N)CC(=O)O)C(=O)N[C@@H](CC(C)C)C(=O)NCC(=O)N[C@@H](C)C(=O)N[C@@H](Cc4ccccc4)C(=O)N[C@@H](CCCNC(=N)N)C(=O)N[C@@H](CCCCN)C(=O)N2)NC(=O)[C@H](CSSC[C@@H](C(=O)N[C@@H](CCCCN)C(=O)N[C@@H](Cc2ccc(O)cc2)C(=O)N[C@H](C(=O)N[C@@H](Cc2ccccc2)C(N)=O)C(C)C)NC(=O)[C@H](Cc2c[nH]c4ccccc24)NC(=O)[C@H](CCCNC(=N)N)NC(=O)[C@H](Cc2c[nH]cn2)NC(=O)[C@H](C)NC(=O)[C@H](CO)NC(=O)[C@H](CO)NC3=O)NC(=O)[C@H](CCCCN)NC(=O)[C@H](CC(=O)O)NC(=O)[C@H](CC(N)=O)NC(=O)[C@H](CC(=O)O)NC(=O)[C@@H]2CCCN2C1=O [mGpTx1-SA] (H-DCLGAFRKCIPDNDKCCRPNLVCSSAHRWCKYVF-NH2; disulfide 2-17, 9-23, 16-30)
- small intestinal propulsion (ICR mice [1]): no effect
- inhibition of Kv currents in the primary cardiomyocytes [2]: did not inhibit
- balance time of mice on the rotarod test (ICR mice [3]): did not affect
- exploratory and locomotor behavior, open-field test (C57BL/6 mice): did not influence significantly
- effect on AP amplitude [4]: no significant changes
- effect on resting membrane potential (RMP) [4]: no significant changes
- effect on action potential duration (APD) [4]: no effect
- inhibition of Nav currents in the primary cardiomyocytes [5]: did not inhibit
- RR interval (ICR mice [6]; 2 mg kg-1, tail vein, control 0.13 ± 0.01 s, n = 5, p = 0.3229): 0.13 ± 0.01 s
- heart rate (ICR mice [6]; 2 mg kg-1, tail vein, control 478.2 ± 24.3, n = 5, p = 0.8856): 475.3 ± 24.7
- effect on the ECGs (ICR mice [6]; 2 mg kg-1, tail vein, n = 5): no effect

Compound: CC[C@H](C)[C@@H]1NC(=O)[C@@H]2CSSC[C@@H]3NC(=O)[C@H](C(C)C)NC(=O)[C@H](CC(C)C)NC(=O)[C@H](CC(N)=O)NC(=O)[C@@H]4CCCN4C(=O)[C@H](CCCNC(=N)N)NC(=O)[C@H](CSSC[C@H](NC(=O)[C@@H](N)CC(=O)O)C(=O)N[C@@H](CC(C)C)C(=O)NCC(=O)N[C@@H](C)C(=O)N[C@@H](Cc4ccccc4)C(=O)N[C@@H](CCCNC(=N)N)C(=O)N[C@@H](CCCCN)C(=O)N2)NC(=O)[C@H](CSSC[C@@H](C(=O)N[C@@H](CCCCN)C(=O)N[C@@H](Cc2ccc(O)cc2)C(=O)N[C@H](C(=O)N[C@@H](Cc2ccccc2)C(N)=O)C(C)C)NC(=O)[C@H](Cc2c[nH]c4ccccc24)NC(=O)[C@H](CCCNC(=N)N)NC(=O)[C@H](Cc2cnc[nH]2)NC(=O)[C@H](CC(C)C)NC(=O)[C@H](CCCNC(=N)N)NC(=O)[C@H](CO)NC3=O)NC(=O)[C@H](CCCCN)NC(=O)[C@H](CC(=O)O)NC(=O)[C@H](CC(N)=O)NC(=O)[C@H](CC(=O)O)NC(=O)[C@@H]2CCCN2C1=O [mGpTx1] (H-DCLGAFRKCIPDNDKCCRPNLVCSRLHRWCKYVF-NH2; disulfide 2-17, 9-23, 16-30)
- IC50 (rKv4.2 M279A): 16500 ± 9010 nM
- effect on AP amplitude [4]: no significant changes
- effect on resting membrane potential (RMP) [4]: no significant changes
- APD at 90% repolarization (APD 90) ([4]; before treatment 51.7 ± 14.6 ms, n = 5, p = 0.0289): 137.1 ± 36.3 ms
- effect on action potential duration (APD) [4]: significantly prolonged
- QTc interval (ICR mice [6]; 0.3 mg kg-1, tail vein, control 0.07 ± 0.01 s, n = 8, p < 0.001): 0.12 ± 0.01 s
- RR interval (ICR mice [6]; 0.3 mg kg-1, tail vein, control 0.12 ± 0.01 s, n = 8, p = 0.0088): 0.14 ± 0.01 s
- T-wave amplitude (ICR mice [6]; 0.3 mg kg-1, tail vein, control 0.20 ± 0.03 mV, n = 8, p = 0.0138): 0.09 ± 0.02 mV
- heart rate (ICR mice [6]; 0.3 mg kg-1, tail vein, control 508.4 ± 24.5, n = 8, p = 0.0045): 451.6 ± 27.1
- effect on the ECGs (ICR mice [6]; 0.3 mg kg-1, tail vein, n = 8): notably altered the shape of the ECGs
